From patent US6979560B1, “Eschericha bacteria overexpressing the yahn gene for feedback-insensitive amino acid production” (priority 1998, dated 2005)
≈ marks a conversion by molar mass, not a printed value. Read-outs that look alike come from different tables or passages of the source.

What was measured:
Type in all cases: cell-based
E. coli TG1/pYFIK = assay: microbe, parasite or virus in culture; details: for MIC: Escherichia coli, TG1/PYFIK, read-out: MIC (μg/ml) for E. coli TG1, harboring the plasmid pYFIK
Excerpt: (§1) The homology of the yeaS, yfiK, yahN and yggA gene products with the lysine transporter, LysE, of Corynebacterium glutamicum (Vrljic et al., Mol. Microbiol.,22, 815-826, 1996) and RhtB protein involved in homoserine excretion, indicates the analogues function for these proteins. It is well known that the increased expression of the genes involved in antibiotic and heavy metal efflux increases the level of resistance to the drugs (Nikaido, H. J. Bacteriology, 178, 5853-5859, 1996). Therefore, the effect of the pYEAS, pYAHN, PYFIK, and pYGGA plasmids on susceptibility of the strain TG1 to some amino acids and amino acid analogues was tested. Overnight cultures of the E. coli strains TG1/pYEAS, TG1/pYAHN, TG1/pYFIK, TG1/pYGGA and of the control strains TG1/pUC21, TG1/pUC19 and TG1/pOK12 grown in M9 minimal medium with an appropriate antibiotic on a rotary shaker (10^9 cfu/ml) were diluted 1:100 in M9 minimal medium and grown for 5 h in the same medium. Then the log phase cultures thus obtained were diluted and about 10^4 alive cells were applied to well-dried test plates with M9 agar containing doubling increments of amino acids or analogues. Thus the minimum inhibition concentration (MIC) of these compounds were examined.

E. coli TG1/pYEAS = assay: microbe, parasite or virus in culture; details: for MIC: Escherichia coli, TG1/PYEAS, read-out: MIC (μg/ml) for E. coli TG1, harboring the plasmid pYEAS
Excerpt: as §1

E. coli TG1/pYAHN = assay: microbe, parasite or virus in culture; details: for MIC: Escherichia coli, TG1/PYAHN, read-out: MIC (μg/ml) for E. coli TG1, harboring the plasmid pYAHN
Excerpt: as §1

E. coli TG1/pYGGA = assay: microbe, parasite or virus in culture; details: for MIC: Escherichia coli, TG1/PYGGA, read-out: MIC (μg/ml) for E. coli TG1, harboring the plasmid pYGGA
Excerpt: as §1

E. coli TG1/pUC21 = assay: MIC of amino acids and analogues on M9 agar, control strain TG1/pUC21; details: for MIC: Escherichia coli
Experimental: Therefore, the effect of the pYEAS, pYAHN, PYFIK, and pYGGA plasmids on susceptibility of the strain TG1 to some amino acids and amino acid analogues was tested. Overnight cultures of the E. coli strains TG1/pYEAS, TG1/pYAHN, TG1/pYFIK, TG1/pYGGA and of the control strains TG1/pUC21, TG1/pUC19 and TG1/pOK12 grown in M9 minimal medium with an appropriate antibiotic on a rotary shaker (10^9 cfu/ml) were diluted 1:100 in M9 minimal medium and grown for 5 h in the same medium. Then the log phase cultures thus obtained were diluted and about 10^4 alive cells were applied to well-dried test plates with M9 agar containing doubling increments of amino acids or analogues. Thus the minimum inhibition concentration (MIC) of these compounds were examined.

[1] = E. coli TG1 harboring pUC21 (control vector), M9 agar, doubling increments, read-out: MIC (μg/ml) for E. coli TG1, harboring the plasmid pUC21

SMILES | MIC (E. coli TG1/pYFIK) | MIC (E. coli TG1/pYEAS) | MIC (E. coli TG1/pYAHN) | MIC (E. coli TG1/pYGGA) | MIC (E. coli TG1/pUC21; [1]) | MIC (E. coli TG1/pUC21; TG1/PUC21, read-out: MIC (μg/ml) for E. coli TG1, harboring the plasmid pUC21) | MIC (μg/ml) for E. coli TG1, harboring the plasmid pYFIK (E. coli TG1/pYFIK; E. coli TG1 harboring pYFIK (multicopy yfiK), M9 agar, doubling increments) | MIC (μg/ml) for E. coli TG1, harboring the plasmid pYEAS (E. coli TG1/pYEAS; E. coli TG1 harboring pYEAS (multicopy yeaS), M9 agar, doubling increments) | MIC (μg/ml) for E. coli TG1, harboring the plasmid pYAHN (E. coli TG1/pYAHN; E. coli TG1 harboring pYAHN (multicopy yahN), M9 agar, doubling increments) | MIC (μg/ml) for E. coli TG1, harboring the plasmid pYGGA (E. coli TG1/pYGGA; E. coli TG1 harboring pYGGA (multicopy yggA), M9 agar, doubling increments) | MIC (μg/ml) for E. coli TG1, harboring the plasmid pUC21 (E. coli TG1/pUC21; E. coli TG1 harboring pUC21 (control vector), M9 agar, doubling increments)
CCC(O)C(N)C(=O)O (stereo not drawn) [AHVA, α-amino-β-hydroxyvaleric-acid] | 200 µg/mL (≈ 1.5 mM) | 100 µg/mL (≈ 0.751 mM) | 100 µg/mL (≈ 0.751 mM) | 100 µg/mL (≈ 0.751 mM) | 100 µg/mL |  |  |  |  |  | 
C[C@@H](O)[C@H](N)C(=O)O [L-threonine] | 40000 µg/mL (≈ 336 mM) | 50000 µg/mL (≈ 420 mM) | 30000 µg/mL (≈ 252 mM) | 30000 µg/mL (≈ 252 mM) | 30000 µg/mL |  |  |  |  |  | 
CC(C)[C@H](N)C(=O)O [L-valine] | 0.5 µg/mL (≈ 0.00427 mM) | 0.5 µg/mL (≈ 0.00427 mM) | 0.5 µg/mL (≈ 0.00427 mM) | 0.5 µg/mL (≈ 0.00427 mM) | 0.5 µg/mL |  |  |  |  |  | 
N=C(N)NCCC[C@H](N)C(=O)O [L-arginine] | 10000 µg/mL (≈ 57.4 mM) | 10000 µg/mL (≈ 57.4 mM) | 10000 µg/mL (≈ 57.4 mM) | 20000 µg/mL (≈ 115 mM) | 10000 µg/mL |  |  |  |  |  | 
N[C@@H](CCO)C(=O)O [L-homoserine] | 1000 µg/mL (≈ 8.39 mM) | 1000 µg/mL (≈ 8.39 mM) | 500 µg/mL (≈ 4.2 mM) | 500 µg/mL (≈ 4.2 mM) | 500 µg/mL |  |  |  |  |  | 
CCC(N)C(=O)O (stereo not drawn) [α-aminobutyric acid] | 5000 µg/mL (≈ 48.5 mM) | > 10000 µg/mL | 2500 µg/mL (≈ 24.2 mM) | 2500 µg/mL (≈ 24.2 mM) | 2500 µg/mL |  |  |  |  |  | 
NCCCC[C@H](N)C(=O)O [L-lysine] | 7500 µg/mL (≈ 51.3 mM) | 7500 µg/mL (≈ 51.3 mM) | 5000 µg/mL (≈ 34.2 mM) | 15000 µg/mL (≈ 103 mM) |  | 5000 µg/mL |  |  |  |  | 
N[C@@H](CCC(=O)O)C(=O)[O-].[Na+] [L-glutamate (Na salt)] |  |  |  |  |  |  | 10000 μg/ml | 20000 μg/ml | 5000 μg/ml | 5000 μg/ml | 5000 μg/ml
O=C(O)[C@@H]1CCCN1 [L-proline] | 5000 µg/mL (≈ 43.4 mM) | 2000 µg/mL (≈ 17.4 mM) | 2000 µg/mL (≈ 17.4 mM) | 1000 µg/mL (≈ 8.69 mM) | 1000 µg/mL |  |  |  |  |  | 
NCCSC[C@H](N)C(=O)O [AEC, S-(2-aminoethyl)-L-cysteine] | 10 µg/mL (≈ 0.0609 mM) | 5 µg/mL (≈ 0.0304 mM) | 5 µg/mL (≈ 0.0304 mM) | 200 µg/mL (≈ 1.22 mM) | 5 µg/mL |  |  |  |  |  | 
CN(C)CC(N)C(=O)O (racemic) [4-aza-DL-leucine] | 100 µg/mL (≈ 0.757 mM) | 100 µg/mL (≈ 0.757 mM) | 100 µg/mL (≈ 0.757 mM) | 100 µg/mL (≈ 0.757 mM) | 100 µg/mL |  |  |  |  |  | 
N[C@@H](Cc1c[nH]cn1)C(=O)O [L-histidine] | 10000 µg/mL (≈ 64.5 mM) | 30000 µg/mL (≈ 193 mM) | 5000 µg/mL (≈ 32.2 mM) | 5000 µg/mL (≈ 32.2 mM) | 5000 µg/mL |  |  |  |  |  | 
